This is an account of results in patent publication US9573913B2, “Cathepsin cysteine protease inhibitors” (Merck Sharp & Dohme Corp., priority 2013, dated 2017).

Where only a bound is given, the exact number is not on record here.

Assay [1] has as its target human cathepsin K (UniProt P43236). In words: Cathepsin K Assay (hrbCat K). The format is biochemical. The following applies: Z-Leu-Arg-AMC substrate, pH 5.5, 15 min preincubation; read-out: hrbCat K (IP (nM)). The method, boiled down:
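Human cathepsin K (0.4 nM) was preincubated 15 min at room temperature with compound in 50 mM MES pH 5.5, 2.5 mM EDTA, 2.5 mM DTT and 10% DMSO. Inhibition was fitted to a dose-response model.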

Assay [2] has as its target T1, human cathepsin F (Homo sapiens, UniProt Q9UBX1).
T1 sequence (Q9UBX1 271-484): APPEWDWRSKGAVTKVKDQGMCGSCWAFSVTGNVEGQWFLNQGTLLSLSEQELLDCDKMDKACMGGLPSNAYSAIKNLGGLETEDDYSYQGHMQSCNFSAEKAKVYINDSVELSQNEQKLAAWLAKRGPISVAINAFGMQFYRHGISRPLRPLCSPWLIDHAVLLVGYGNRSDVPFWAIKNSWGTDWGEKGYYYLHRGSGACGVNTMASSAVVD
In words: Cathepsin F assay (hCat F). Format: biochemical. The following applies: Z-Phe-Arg-AMC substrate, pH 5.5, 15 min preincubation; read-out: hCat F (IP (nM)). The method, boiled down:
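AMC release from Z-Phe-Arg-AMC, added at 8 μM, was monitored fluorometrically (360/460 nm) for 20 min after 10 nM enzyme and compound had been preincubated 15 min at room temperature. Buffer: MES 50 mM pH 5.5, EDTA and DTT 2.5 mM each, 10% DMSO. Compound DMSO dilutions spanned 500–0.025 μM (3-fold). Dose-response fitting gave % inhibition.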

Take `C[C@H](C#N)NC(=O)[C@@H]1C[C@@H](F)CC[C@H]1c1nc(-c2ccc(F)cn2)sc1-c1ccc(N2CCS(=O)(=O)CC2)cc1` [Example 129, (1R,2R,5S)-N-((R)-1-cyanoethyl)-2-(5-(4-(1,1-dioxidothiomorpho-lino)phenyl)-2-(5-fluoropyridin-2-yl)thiazol-4-yl)-5-fluorocyclohexane-carboxamide]: the IC50 in assay [1] is 25.5 nM; in assay [2] it was at least 10000 nM.
The corresponding values for `C[C@@H](C#N)NC(=O)[C@@H]1C[C@@H](F)CC[C@H]1c1nc(-c2ccc(F)cn2)sc1-c1ccc(N2CCS(=O)(=O)CC2)cc1` [Example 130, (1R,2R,5S)-N-((S)-1-cyanoethyl)-2-(5-(4-(1,1-dioxidothiomorpho-lino)phenyl)-2-(5-fluoropyridin-2-yl)thiazol-4-yl)-5-fluorocyclohexane-carboxamide] are 0.9 nM and 1000 nM.
The corresponding values for `CS(=O)(=O)c1ccc(-c2sc(-c3cccnc3)nc2[C@@H]2CCCC[C@H]2C(=O)NC2(C#N)CC2)cc1` [Example 131, (1R,2R)-N-(1-cyanocyclopropyl)-2-(5-(4-(methylsulfonyl)phenyl)-2-(pyridin-3-yl)thiazol-4-yl)cyclohexane-carboxamide] are 39.7 nM and 1790 nM.
Take `N#CC1(NC(=O)[C@@H]2CCCC[C@H]2c2nc(-c3cccc(C(F)(F)F)n3)sc2-c2ccc(N3CCS(=O)(=O)CC3)cc2)CC1` [Example 132, (1R,2R)-N-(1-cyanocyclopropyl)-2-(5-(4-(1,1-dioxidothiomorpho-lino)phenyl)-2-(6-(trifluoromethyl)pyridin-2-yl)thiazol-4-yl)cyclohexane-carboxamide]: the IC50 in assay [1] is 1.8 nM; in assay [2], 2340 nM.
In the same order, the values of `CC1(c2nc([C@@H]3CCCC[C@H]3C(=O)NC3(C#N)CC3)c(-c3ccc(N4CCS(=O)(=O)CC4)cc3)s2)CCOCC1` [Example 133, (1R,2R)-N-(1-cyanocyclopropyl)-2-(5-(4-(1,1-dioxidothiomorpho-lino)phenyl)-2-(4-methyltetrahydro-2H-pyran-4-yl)thiazol-4-yl)cyclohexane-carboxamide] are 4.9 nM and at least 10000 nM.
The corresponding values for `N#CC1(NC(=O)[C@@H]2CCCC[C@H]2c2nc(-c3cncc(F)c3)sc2-c2ccc(N3CCS(=N)(=O)CC3)cc2)CC1` [Example 135, (1R,2R)-N-(1-cyanocyclopropyl)-2-(2-(5-fluoropyridin-3-yl)-5-(4-(1-imino-1-oxidothiomorpholino)phenyl)thiazol-4-yl)cyclohexane-carboxamide] are 1.2 nM and 1560 nM.
With `N#CC1(NC(=O)[C@@H]2CCCC[C@H]2c2nc(-c3ccc(F)cn3)sc2-c2ccc(N3CCS(=N)(=O)CC3)cc2)CC1` [Example 136, (1R,2R)-N-(1-cyanocyclopropyl)-2-(2-(5-fluoropyridin-2-yl)-5-(4-(1-imino-1-oxidothiomorpholino)phenyl)thiazol-4-yl)cyclohexane-carboxamide], the IC50 in assay [1] was 1.9 nM; in assay [2] it was 1660 nM.
Take `CN=S1(=O)CCN(c2ccc(-c3sc(-c4cncc(F)c4)nc3[C@@H]3CCCC[C@H]3C(=O)NC3(C#N)CC3)cc2)CC1` [Example 138, (1R,2R)-N-(1-cyanocyclopropyl)-2-(2-(5-fluoropyridin-3-yl)-5-(4-(1-(methylimino)-1-oxidothiomorpholino)phenyl)thiazol-4-yl)cyclohexane-carboxamide]: the values for the IC50 in assay [1] and in assay [2] were 1.9 nM and 2130 nM, respectively.
In the same order, the values of `CN=S1(=O)CCN(c2ccc(-c3sc(-c4ccc(F)cn4)nc3[C@@H]3CCCC[C@H]3C(=O)NC3(C#N)CC3)cc2)CC1` [Example 139, (1R,2R)-N-(1-cyanocyclopropyl)-2-(2-(5-fluoropyridin-2-yl)-5-(4-(1-(methylimino)-1-oxidothiomorpholino)phenyl)thiazol-4-yl)cyclohexane-carboxamide] are 3.3 nM and 2750 nM.
Take `N#CC1(NC(=O)[C@@H]2C[C@@H](F)CC[C@H]2c2nc(-c3ccc(F)cn3)sc2-c2ccc(N3CCS(=N)(=O)CC3)cc2)CC1` [Example 141, (1R,2R,5S)-N-(1-cyanocyclopropyl)-5-fluoro-2-(2-(5-fluoropyridin-2-yl)-5-(4-(1-imino-1-oxidothiomorpholino)phenyl)thiazol-4-yl)cyclohexane-carboxamide]: the figures for the IC50 in assay [1] and in assay [2] were 2.3 nM and 1000 nM, respectively.
With `CC1(C)CN(c2nc([C@@H]3CCCC[C@H]3C(=O)NC3(C#N)CC3)c(-c3ccc(N4CCS(=O)(=O)CC4)cc3)s2)CCO1` [Example 142, (1R,2R)-N-(1-cyanocyclopropyl)-2-(2-(2,2-dimethylmorpholino)-5-(4-(1,1-dioxidothiomorpho-lino)phenyl)thiazol-4-yl)cyclohexane-carboxamide], the IC50 in assay [1] came to 5.8 nM; in assay [2], 3400 nM.
In the same order, the values of `CNC(=O)N1CC(c2ccc(-c3sc(-c4ccc(F)cc4)nc3[C@@H]3CCCC[C@H]3C(=O)NC3(C#N)CC3)cc2)C1` [Example 143, 3-(4-(4-((1R,2R)-2-((1-cyanocyclopropyl)carbamoyl)cyclohex-yl)-2-(4-fluorophenyl)thiazol-5-yl)phenyl)-N-methylazetidine-1-carboxamide] are 2 nM and 134 nM.
In the same order, the values of `N#CC1(NC(=O)[C@@H]2CCCC[C@H]2c2nc(N3CCO[C@@H](C(F)(F)F)C3)sc2-c2ccc(N3CCS(=O)(=O)CC3)cc2)CC1` [Example 144, (1R,2R)-N-(1-cyanocyclopropyl)-2-(5-(4-(1,1-dioxidothiomorpho-lino)phenyl)-2-((R)-2-(trifluoromethyl)morpholino)thiazol-4-yl)cyclohexane-carboxamide] are 3.3 nM and 5280 nM.
`N#CC1(NC(=O)[C@@H]2CCCC[C@H]2c2nc(N3CCO[C@H](C(F)(F)F)C3)sc2-c2ccc(N3CCS(=O)(=O)CC3)cc2)CC1` [Example 145, (1R,2R)-N-(1-cyanocyclopropyl)-2-(5-(4-(1,1-dioxidothiomorpho-lino)phenyl)-2-((S)-2-(trifluoromethyl)morpholino)thiazol-4-yl)cyclohexane-carboxamide]: the IC50 in assay [1] stood at 4.3 nM; in assay [2], 7050 nM.
In the same order, the values of `N#CC1(NC(=O)[C@@H]2CCCC[C@H]2c2nc(C3CCCOC3)sc2-c2ccc(N3CCS(=O)(=O)CC3)cc2)CC1` (stereo partly drawn) [Example 146, (1R,2R)-N-(1-cyanocyclopropyl)-2-(5-(4-(1,1-dioxidothiomorpho-lino)phenyl)-2-(tetrahydro-2H-pyran-3-yl)thiazol-4-yl)cyclohexane-carboxamide] are 4.6 nM and 1000 nM.
In the same order, the values of `N#CC1(NC(=O)[C@@H]2CCCC[C@H]2c2nc([C@@H]3CCCCO3)sc2-c2ccc(N3CCS(=O)(=O)CC3)cc2)CC1` [Example 149, (1R,2R)-N-(1-cyanocyclopropyl)-2-(5-(4-(1,1-dioxidothiomorpho-lino)phenyl)-2-((S)-tetrahydro-2H-pyran-2-yl)thiazol-4-yl)cyclohexane-carboxamide] are 3.6 nM and 7560 nM.
For the molecule `N#CC1(NC(=O)[C@@H]2CCCC[C@H]2c2nc(-c3ccc(F)cc3)sc2-c2ccc(C3CN(C(=O)NCC(F)(F)F)C3)cc2)CC1` [Example 150, 3-(4-(4-((1R,2R)-2-((1-cyanocyclopropyl)carbamoyl)cyclohex-yl)-2-(4-fluorophenyl)thiazol-5-yl)phenyl)-N-(2,2,2-trifluoroethyl) azetidine-1-carboxamide], the IC50 turned out to be 1.6 nM in assay [1] and 110 nM in assay [2].
In the same order, the values of `CC(=O)N1CC(c2ccc(-c3sc(-c4ccc(F)cc4)nc3[C@@H]3CCCC[C@H]3C(=O)NC3(C#N)CC3)cc2)C1` [Example 151, (1R,2R)-2-(5-(4-(1-acetylazetidin-3-yl)phenyl)-2-(4-fluorophenyl)thiazol-4-yl)-N-(1-cyanocyclopropyl) cyclohexanecarbox-amide] are 1.3 nM and 177 nM.
The corresponding values for `CN(CC(F)(F)F)c1nc([C@@H]2CCCC[C@H]2C(=O)NC2(C#N)CC2)c(-c2ccc(N3CCS(=O)(=O)CC3)cc2)s1` [Example 152, (1R,2R)-N-(1-cyanocyclopropyl)-2-(5-(4-(1,1-dioxidothiomorpho-lino)phenyl)-2-(methyl(2,2,2-trifluoroethyl)amino)thiazol-4-yl)cyclohexane-carboxamide] are 7 nM and at least 10000 nM.
The corresponding values for `N#CC1(NC(=O)[C@@H]2CCCC[C@H]2c2nc(N3CCC(F)(F)C3)sc2-c2ccc(N3CCS(=O)(=O)CC3)cc2)CC1` [Example 153, (1R,2R)-N-(1-cyanocyclopropyl)-2-(2-(3,3-difluoropyrrolidin-1-yl)-5-(4-(1,1-dioxidothiomorpho-lino)phenyl)thiazol-4-yl)cyclohexane-carboxamide] are 3.1 nM and 1000 nM.
As to `N#CC1(NC(=O)[C@@H]2CCCC[C@H]2c2nc([C@@H]3CCOC3)sc2-c2ccc(N3CCS(=O)(=O)CC3)cc2)CC1` [Example 155, (1R,2R)-N-(1-cyanocyclopropyl)-2-(5-(4-(1,1-dioxidothiomorpho-lino)phenyl)-2-((R)-tetrahydrofuran-3-yl)thiazol-4-yl)cyclohexane-carboxamide], the IC50 in assay [1] was 4 nM; in assay [2], 1000 nM.
